Reference: US20080075796A1, “Compositions and Methods for Controlling Insects” (TyraTech, Inc., priority 2003, published 2008)

Experiments:
Or83b receptor [1] = molecular target: T1, Or83b receptor (Drosophila melanogaster, UniProt Q9VNB5); experiment: Intracellular Ca^2+ mobilization in Schneider cells expressing Or83b receptor; type: cell-based; conditions: ionomycin about 2 μM, tyramine about 10 μM
T1 construct: His (from vector pAc5.1/V5-His B) (C); expressed in transfected cells
T1 sequence (Q9VNB5 1-486): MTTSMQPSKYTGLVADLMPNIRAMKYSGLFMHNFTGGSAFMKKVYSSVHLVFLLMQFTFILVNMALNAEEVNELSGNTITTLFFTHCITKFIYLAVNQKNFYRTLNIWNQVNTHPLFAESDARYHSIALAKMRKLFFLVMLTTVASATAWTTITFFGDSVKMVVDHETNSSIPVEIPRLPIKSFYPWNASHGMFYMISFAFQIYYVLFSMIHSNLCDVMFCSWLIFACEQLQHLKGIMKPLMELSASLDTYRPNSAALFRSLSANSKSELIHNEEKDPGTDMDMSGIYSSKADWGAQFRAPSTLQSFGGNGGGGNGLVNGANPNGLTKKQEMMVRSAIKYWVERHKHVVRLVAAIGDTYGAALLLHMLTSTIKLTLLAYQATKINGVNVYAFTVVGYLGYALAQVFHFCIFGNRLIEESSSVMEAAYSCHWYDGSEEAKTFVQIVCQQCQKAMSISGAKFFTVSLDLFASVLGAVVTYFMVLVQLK
Description: (§1) Intracellular calcium ion concentrations ([Ca^2+]i) are measured by using the acetoxymethyl (AM) ester of the fluorescent indicator fura-2 (Enan, et al., Biochem. Pharmacol vol 51, 447-454). In this study, cells expressing tyramine receptor are grown under standard conditions. A cell suspension is prepared in assay buffer (140 mM NaCL, 10 mM HEPES, 10 mM glucose, 5 mM KCl, 1 mM CaCl2, 1 mM MgCl2) and cell number adjusted to about 2×10^6 cells per ml. Briefly, about 1.0 ml cell suspension (about 2×10^6 cells) is incubated with about 5 μM Fura 2/AM for about 30 min at about 28° C. After incubation, the cells are pelleted at about 3700 rpm for about 10 sec at room temperature and then resuspended in about 1.5 ml assay buffer. [Ca^2+]i changes are analyzed in spectrofluorometer in the presence and absence of test chemicals. Excitation wave lengths are about 340 nm (generated by Ca^2+-bound fura-2) and about 380 nm (corresponding to Ca^2+-free fura-2). The fluorescence intensity is monitored at an emission wave length of about 510 nm. No absorbance of fluorescence artifacts are observed with any of the compounds used. The ratio of about 340/380 nm is calculated and plotted as a function of time.
(§2) Intracellular Ca^2+ levels are measured using the method described above in Example 3.

Or43a receptor [2] = molecular target: T2, Or43a receptor (Drosophila melanogaster, UniProt P81917, L154V); experiment: Intracellular Ca^2+ mobilization in Schneider cells expressing Or43a receptor; type: cell-based
T2 construct: His (from vector pAc5.1/V5-His B) (C); expressed in transfected cells
T2 sequence (P81917 whole entry L154V): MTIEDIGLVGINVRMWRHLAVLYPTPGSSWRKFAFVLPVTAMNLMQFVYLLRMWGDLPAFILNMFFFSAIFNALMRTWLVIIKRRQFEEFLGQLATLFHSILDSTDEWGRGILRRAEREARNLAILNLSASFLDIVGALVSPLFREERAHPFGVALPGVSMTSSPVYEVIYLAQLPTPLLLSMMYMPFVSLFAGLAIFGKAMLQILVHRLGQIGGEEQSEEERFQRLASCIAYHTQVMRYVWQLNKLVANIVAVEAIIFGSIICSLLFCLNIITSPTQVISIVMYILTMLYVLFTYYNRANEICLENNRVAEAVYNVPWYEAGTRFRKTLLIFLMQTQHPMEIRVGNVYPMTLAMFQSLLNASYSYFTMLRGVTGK
Description: as §1, §2
(§3) Changes in intracellular Ca^2+ levels are calculated based on the difference between the 340/380 fluorescence ratios before and after approximately 150 seconds of the treatment.

control Schneider cells = experiment: Intracellular Ca2+ mobilization in control Schneider cells; type: cell-based, Drosophila; conditions: FIG. 22
Description: as §1, §3

[3] = test system: Drosophila melanogaster tyramine receptor (TyrR), SEQ ID NO: 2; experiment: Inhibition of 3H-tyramine binding to membranes of Schneider cells expressing TyrR; conditions: compared with tyramine, FIG. 4
Description: Phage DNA is purified from this library using a liquid culture lysate.
In order to determine the pharmacological profile of tyramine receptor (TyrR), the ability of a number of putative Drosophila neurotransmitters to displace ^3H-tyramine (^3H-TA) binding from membranes expressing tyramine receptor is tested.

Or43a receptor [4] = molecular target: T2, Or43a receptor; experiment: cAMP production in Schneider cells expressing Or43a receptor; type: cell-based; conditions: agent alone; tyramine about 20 μM, LFO, BSO about 50 μg/ml, forskolin about 10 μM
Description: Cells are grown on dishes and the media changed the day before the treatment. […] About 20 mL of insect saline is added, and cells are harvested by gentle scraping. An aliquot of the cells is counted by hemocytometer, and the cells are then centrifuged for about 5 minutes at about 1000 RPM. Cells are resuspended to give about 3×10^6 cells per mL. IBMX is added to about 200 μM. Then about 1 mL of cell suspension is aliquoted for treatment. Forskolin (cAMP inducing agent), tyramine or different composition candidates are added, and the cells are incubated at about 27° C. for about 10 minutes.
(§4) Treated cells are centrifuged at about 13000 g for about 10 seconds. The solution is aspirated and about 1 mL of about −20° C. 70% ethanol is added. The cell pellet is disrupted by vortexing and the samples placed at about −20° C. overnight. Following the ethanol extraction, cellular debris is pelleted by centrifugation at about 13000 g for about 5 minutes. The supernatant is transferred to a tube and lyophilized to dryness in a rotary speed-vac. The resulting extract is resuspended in about 100 μL TE and used for the cAMP assay.
(§5) The cAMP assay is based on competition binding between endogenous cAMP and ^3H-cAMP to a cAMP binding protein. The ^3H-cAMP Biotrak system (Amersham Biosciences) is used for this assay as per the manufacturer's instructions. Briefly, about 50 μL of the cellular extract is incubated with about 50 μL ^3H-cAMP and about 100 μL cAMP binding protein in an ice bath for about 2-4 hours. Charcoal (about 100 μL) is then added and the solution centrifuged for about 3 minutes at about 4° C. About 200 μL of the reaction mixture is removed and levels of ^3H-cAMP are determined by scintillation counting.
As such, the cells expressing olfactory receptors have a functionally active cAMP cascade.

tyramine receptor (TyrR) [5] = molecular target: T3, tyramine receptor (TyrR) (Drosophila melanogaster, UniProt P22270); experiment: cAMP levels in Schneider cells expressing tyramine receptor; type: cell-based; design: oligonucleotides that are used to amplify the open reading frame of the Drosophila tyramine receptor (TyrR); expressed in transfected cells; conditions: forskolin about 10 μM, transfected cells, vs solvent (ethanol)
T3 sequence (P22270 27-601): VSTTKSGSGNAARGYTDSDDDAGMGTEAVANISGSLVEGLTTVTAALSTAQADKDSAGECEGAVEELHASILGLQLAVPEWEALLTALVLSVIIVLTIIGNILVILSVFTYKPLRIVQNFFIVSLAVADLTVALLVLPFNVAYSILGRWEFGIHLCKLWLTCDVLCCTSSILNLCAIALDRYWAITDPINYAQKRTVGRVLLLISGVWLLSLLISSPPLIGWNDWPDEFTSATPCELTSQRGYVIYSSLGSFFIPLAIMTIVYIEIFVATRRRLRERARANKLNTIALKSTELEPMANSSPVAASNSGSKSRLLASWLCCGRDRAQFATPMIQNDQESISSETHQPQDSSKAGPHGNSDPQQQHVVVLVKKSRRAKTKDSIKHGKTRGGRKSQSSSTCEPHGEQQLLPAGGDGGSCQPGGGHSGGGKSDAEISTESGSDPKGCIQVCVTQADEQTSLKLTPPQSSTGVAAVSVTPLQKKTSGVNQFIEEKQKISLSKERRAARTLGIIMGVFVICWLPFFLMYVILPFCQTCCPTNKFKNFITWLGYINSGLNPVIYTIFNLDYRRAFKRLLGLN
Description: (§6) Cells are grown on dishes and the media changed the day before the treatment. When cells are approximately 95% confluent, media is aspirated and the cells are washed one time with about 5 mL of about 27° C. insect saline (170 mM NaCl, 6.0 mM KCl, 2.0 mM NaHCO3, 17.0 mM glucose, 6.0 mM NaH2PO4, 2.0 mM CaCl2, 4.0 mM MgCl2; pH 7.0). About 20 mL of insect saline is added, and cells are harvested by gentle scraping. An aliquot of the cells is counted by hemocytometer, and the cells are then centrifuged for about 5 minutes at about 1000 RPM. Cells are resuspended to give about 3×10^6 cells per mL. IBMX is added to about 200 μM. Then about 1 mL of cell suspension is aliquoted for treatment. Forskolin (cAMP inducing agent), tyramine or different composition candidates are added, and the cells are incubated at about 27° C. for about 10 minutes.
as §4, with “The resulting extract is resuspended in about 100 μL TE and used for the cAMP assay.” left out
The cAMP assay is based on competition binding between endogenous cAMP and ^3H-cAMP to a cAMP binding protein. […] About 200 μL of the reaction mixture is removed and levels of ^3H-cAMP are determined by scintillation counting. Levels of endogenous cAMP from the cells are calculated using a standard curve with cold cAMP ranging from about 0 to 16 pmol per reaction.
To examine test chemical-dependent coupling of the tyramine receptor, pAcB-TyrR is stably expressed in Schneider cells. Transfected and untransfected cells are treated with tyramine (about 10 μM), LFO (about 25 μg/ml) and BSO (about 25 μg/ml) in the presence and absence of forskolin (FK) (about 10 μM). cAMP production is measured using the ^3H-cAMP assay kit (Amersham) as described above.

Or83b receptor [6] = molecular target: T1, Or83b receptor; experiment: cAMP production in Schneider cells expressing Or83b receptor; type: cell-based
Description: as §6, §4
as §5, with “counting. Levels of endogenous cAMP from the cells are calculated using a standard curve with cold cAMP ranging from about 0 to 16 pmol per reaction.” for “counting.”
To ensure that the cAMP cascade in this cell model is functionally active, forskolin, a cAMP inducer, is used as standard agent. Cyclic-AMP levels are measured using the cAMP assay described above in Example 2. […]
To determine the effect of various plant essential oils on intracellular cAMP production and the tyramine-dependent changes of cAMP in cells expressing one of the olfactory receptors, cells from each cell model are treated with LFO (about 50 μg/ml) and BSO (about 50 μg/ml) in the presence and absence of tyramine (about 20 μM) and forskolin (about 10 μM) and intracellular cAMP is thereafter quantified using the cAMP assay described above in Example 2.

tyramine receptor (TyrR) [7] = molecular target: T3, tyramine receptor (TyrR); experiment: Saturation binding of ^3H-tyramine to membranes from Schneider cells expressing tyramine receptor; conditions: saturation binding, membranes expressing TyrR
Description: A preliminary study to determine the optimum concentration of membrane protein for receptor binding activity is performed. […] After about 1 hr incubation at room temperature, reactions are terminated by filtration through GF/C filters (VWR), which have been previously soaked in about 0.3% polyethyleneimine (PEI). The filters are washed one time with about 4 ml ice cold Iris buffer and air dried before the retained radioactivity is measured using LSC. Binding data is analyzed by curve fitting (GraphPad software, Prism).
Receptor binding reactions are incubated for about 1 hr at room temperature (RT) in restricted light. Reactions are terminated by filtration through OF/C filters (VWR), which have been previously soaked in about 0.3% polyethyleneimine (PEI). The filters are washed one time with about 4 ml ice cold Tris buffer and air dried before retained radioactivity is measured using LSC. Binding data is analyzed by curve fitting (GraphPad software, Prism).

## C[C@H](CCC(=O)O)C[C@H](C)C[C@H](C)C(=O)/C=C(\O)[C@H](C)C[C@H](C)C/C=C/[C@@H](C)[C@@H](O)[C@@H](C)[C@@H](O)C[C@@H]1CC[C@@](C)([C@H]2CC[C@@](C)([C@@H](C)O)O2)O1 [ionomycin, reference compound]
Or83b receptor [1]
  increase in intracellular calcium: Approximately 3.8 fold
Or43a receptor [2]; before vs approximately 150 seconds after treatment
  change in intracellular Ca^2+ levels (340/380 fluorescence ratio): only negligibly
Or43a receptor [2]; ionomycin about 2 μM, tyramine about 10 μM
  increase in intracellular calcium: ~7 fold

## C[C@H](CCC(=O)O)C[C@H](C)C[C@H](C)C(=O)/C=C(\O)[C@H](C)C[C@H](C)C/C=C/[C@@H](C)[C@@H](O)[C@@H](C)[C@@H](O)C[C@@H]1CC[C@@](C)([C@H]2CC[C@@](C)([C@@H](C)O)O2)O1 [ionomycin]
Control Schneider cells
  mobilization of Ca2+ in control cells: induce mobilization of Ca^2+

## NCCc1ccc(O)c(O)c1 [Dopamine]
[3]
  displacing 3H-tyramine binding: less efficient than tyramine

## NCCc1c[nH]c2ccc(O)cc12 [Serotonin]
[3]
  displacing 3H-tyramine binding: less efficient than tyramine

## C=C[C@@]1(C)CC(=O)[C@]2(O)[C@@]3(C)[C@@H](O)CCC(C)(C)[C@@H]3[C@H](O)[C@H](OC(C)=O)[C@@]2(C)O1 [forskolin]
Or43a receptor [4]
  change in cAMP levels: increase in cAMP levels
Tyramine receptor (TyrR) [5]
  increase in cAMP levels over basal level: ~19 fold
Or83b receptor [6]; forskolin about 10 μM (Example 11)
  increase in the production of cAMP: ~3000 fold
Or83b receptor [6]; forskolin about 10 μM, about 10 min, room temperature
  increase from basal cAMP levels: ~13 fold

## NCC(O)c1ccc(O)cc1 (stereo not shown) [Octopamine]
[3]
  displacing 3H-tyramine binding: less efficient than tyramine

## NCCc1ccc(O)cc1 [^3H-tyramine]
Tyramine receptor (TyrR) [7]
  Bmax: about 0.679 pmol/mg protein
  Kd: ~1.26 nM
